Experimental data published in PMC9154192 (PLoS Biology, 2022).
Like-named read-outs stand apart in the source and are kept apart here.

Type: in vivo, SD rats
Details: for Adrenal gland: Vacuolation, cortical, diffuse, Grade 1, no. of animals / Adrenal gland: Vacuolation, cortical, diffuse, Grade 2, no. of animals / Epididymis: Infiltrate, inflammatory cell, interstitum, Grade 1, no. of animals / Eye: Dysplasia, retina, focal, Grade 1, no. of animals / Harderian gland: Infiltrate, inflammatory cell, focal, Grade 1, no. of animals / Kidney: Basophilia, tubule, cortex, Grade 1, no. of animals / Kidney: Cast, hyaline, cortex, Grade 1, no. of animals / Kidney: Hydronephrosis, unilateral, Grade 3, no. of animals / Kidney: Infiltrate, inflammatory cell, interstitium, Grade 1, no. of animals / Kidney: Infiltrate, inflammatory cell, interstitium, Grade 2, no. of animals / Kidney: Mineralization, cortex, Grade 1, no. of animals / Kidney: Mineralization, corticomedullary junction, Grade 1, no. of animals / Kidney: Mineralization, medulla, Grade 1, no. of animals / Liver: Extramedullary hematopoiesis, Grade 1, no. of animals / Liver: Fatty change, sporadic/periportal, Grade 1, no. of animals / Liver: Fatty change, sporadic/periportal, Grade 2, no. of animals / Liver: Infiltrate, mononuclear cell, focal, Grade 1, no. of animals / Liver: Infiltrate, mononuclear cell, focal, Grade 2, no. of animals / Lung including bronchi: Alveolar macrophage aggregation, focal, Grade 1, no. of animals / Lung including bronchi: Infiltrate, mononuclear cell, alveolar, focal, Grade 1, no. of animals / Pituitary gland: Cyst, pars nervosa, Presence, no. of animals / Prostate: Infiltrate, inflammatory cell, interstitium, Grade 1, no. of animals / Salivary gland (parotid): Focus, hypertrophic, basophilic, focal, Grade 1, no. of animals / Spleen: Pigmentation, Grade 1, no. of animals / Submandibular lymph node: Increased, plasma cell, Grade 2, no. of animals / Thyroid gland: Ectopic thymus, Presence, no. of animals / Thyroid gland: Ultimobranchial cyst, Presence, no. of animals: female
Description: A subchronic toxicity study was performed for PP2S. Female and male rats were divided into a control group (0 mg/kg/day, n = 15), a low-dose group (167 mg/kg/day, n = 10), a medium-dose group (500 mg/kg/day, n = 10), and a high-dose group (1,500 mg/kg/day, n = 15), respectively. Thus, there were a total of 8 groups. The drug was administered by oral gavage at 10 mL/kg body weight daily for 4 weeks. Five animals each in the control and high-dose groups continued their treatments for 2 more weeks. Clinical symptoms were observed, and body weight was measured during the test period for a total of 6 weeks; 0.5% methyl cellulose 1,500 cP (Sigma, USA) in water for injection (JW Pharmaceutical, Korea) was used as a vehicle. Control animals were treated with only the same volume of the vehicle.
Histopathological examination was performed while performing a 4-week repeated oral toxicity study for PP2S. Organs and tissues from all animals subjected to autopsy were removed and fixed in 10% neutral buffered formalin. Among them, testes, eyeballs and optic nerve were fixed in Davidson's fixative and then in 10% neutral buffered formalin. For organs/tissues subjected to histopathological examination, specimens were prepared according to the histopathological specimen preparation SOP. For histopathological examination, organs and tissues of all subjects in the control group and the high-dose group, and macroscopically observed subjects in the low-dose group were examined. […] In addition, all other changes observed in histopathological examination were judged to be spontaneous or accidental. Those not specifically observed for all groups by organ were marked with a 'dash' symbol. Grade 1, minimal; Grade 2, slight; Grade 3, moderate; Grade 4, severe.

[1] = all groups (167, 500, 1,500 mg/kg; male, female; dosing and recovery period)
[2] = G2 167 mg/kg, dosing period, n=10
[3] = G3 500 mg/kg, dosing period, n=10
[4] = G4 1,500 mg/kg, dosing period, n=10
[5] = G4 1,500 mg/kg, recovery period, n=5

## CCCCOc1ccc2cc(CN3C(=O)CC[C@H]3C(=O)OC)c3cc(OC)c(OC)cc3c2c1 [PP2S, Methyl (S)-1-((3-butoxy-6,7-dimethoxyphenanthren-9-yl)methyl)-5-oxopyrrolidine-2-carboxylate]
All administration groups, 4-week repeated oral toxicity study
  histopathological change due to administration: no change was observed
[1]
  Histopathological findings: Brain: -
  Histopathological findings: Cecum: -
  Histopathological findings: Colon: -
  Histopathological findings: Duodenum: -
  Histopathological findings: Exophagus: -
  Histopathological findings: Femur including bone marrow: -
  Histopathological findings: Heart: -
  Histopathological findings: Ileum: -
  Histopathological findings: Jejunum: -
  Histopathological findings: Mammary gland (inguinal): -
  Histopathological findings: Mesenteric lymph node: -
  Histopathological findings: Optic nerve: -
  Histopathological findings: Pancreas: -
  Histopathological findings: Parathyroid gland: -
  Histopathological findings: Rectum: -
  Histopathological findings: Salivary gland (sublingual): -
  Histopathological findings: Salivary gland (submandibular): -
  Histopathological findings: Seminal vesicle: -
  Histopathological findings: Skin (inguinal): -
  Histopathological findings: Spinal cord (thoracic): -
  Histopathological findings: Sternum including bone marrow: -
  Histopathological findings: Stomach: -
  Histopathological findings: Testis: -
  Histopathological findings: Thymus: -
  Histopathological findings: Tongue: -
  Histopathological findings: Trachea: -
  Histopathological findings: Urinary bladder: -
  Histopathological findings: Uterus: -
  Histopathological findings: Vagina: -
[2]
  Adrenal gland: Vacuolation, cortical, diffuse, Grade 1, no. of animals: 0
  Adrenal gland: Vacuolation, cortical, diffuse, Grade 2, no. of animals: 0
  Epididymis: Infiltrate, inflammatory cell, interstitum, Grade 1, no. of animals: 0
  Eye: Dysplasia, retina, focal, Grade 1, no. of animals: 0
  Harderian gland: Infiltrate, inflammatory cell, focal, Grade 1, no. of animals: 0
  Kidney: Basophilia, tubule, cortex, Grade 1, no. of animals: 0
  Kidney: Cast, hyaline, cortex, Grade 1, no. of animals: 0
  Kidney: Hydronephrosis, unilateral, Grade 3, no. of animals: 0
  Kidney: Infiltrate, inflammatory cell, interstitium, Grade 1, no. of animals: 0
  Kidney: Infiltrate, inflammatory cell, interstitium, Grade 2, no. of animals: 0
  Kidney: Mineralization, cortex, Grade 1, no. of animals: 0
  Kidney: Mineralization, corticomedullary junction, Grade 1, no. of animals: 0
  Kidney: Mineralization, medulla, Grade 1, no. of animals: 0
  Liver: Extramedullary hematopoiesis, Grade 1, no. of animals: 0
  Liver: Fatty change, sporadic/periportal, Grade 1, no. of animals: 0
  Liver: Fatty change, sporadic/periportal, Grade 2, no. of animals: 0
  Liver: Infiltrate, mononuclear cell, focal, Grade 1, no. of animals: 0
  Liver: Infiltrate, mononuclear cell, focal, Grade 2, no. of animals: 0
  Lung including bronchi: Alveolar macrophage aggregation, focal, Grade 1, no. of animals: 0
  Lung including bronchi: Infiltrate, mononuclear cell, alveolar, focal, Grade 1, no. of animals: 0
  Pituitary gland: Cyst, pars nervosa, Presence, no. of animals: 0
  Prostate: Infiltrate, inflammatory cell, interstitium, Grade 1, no. of animals: 0
  Salivary gland (parotid): Focus, hypertrophic, basophilic, focal, Grade 1, no. of animals: 0
  Spleen: Pigmentation, Grade 1, no. of animals: 0
  Submandibular lymph node: Increased, plasma cell, Grade 2, no. of animals: 0
  Thyroid gland: Ectopic thymus, Presence, no. of animals: 0
  Thyroid gland: Ultimobranchial cyst, Presence, no. of animals: 0
[3]
  Adrenal gland: Vacuolation, cortical, diffuse, Grade 1, no. of animals: 0
  Adrenal gland: Vacuolation, cortical, diffuse, Grade 2, no. of animals: 0
  Epididymis: Infiltrate, inflammatory cell, interstitum, Grade 1, no. of animals: 0
  Eye: Dysplasia, retina, focal, Grade 1, no. of animals: 0
  Harderian gland: Infiltrate, inflammatory cell, focal, Grade 1, no. of animals: 0
  Kidney: Basophilia, tubule, cortex, Grade 1, no. of animals: 0
  Kidney: Cast, hyaline, cortex, Grade 1, no. of animals: 0
  Kidney: Hydronephrosis, unilateral, Grade 3, no. of animals: 0
  Kidney: Infiltrate, inflammatory cell, interstitium, Grade 1, no. of animals: 0
  Kidney: Infiltrate, inflammatory cell, interstitium, Grade 2, no. of animals: 0
  Kidney: Mineralization, cortex, Grade 1, no. of animals: 0
  Kidney: Mineralization, corticomedullary junction, Grade 1, no. of animals: 0
  Kidney: Mineralization, medulla, Grade 1, no. of animals: 0
  Liver: Extramedullary hematopoiesis, Grade 1, no. of animals: 0
  Liver: Fatty change, sporadic/periportal, Grade 1, no. of animals: 0
  Liver: Fatty change, sporadic/periportal, Grade 2, no. of animals: 0
  Liver: Infiltrate, mononuclear cell, focal, Grade 1, no. of animals: 0
  Liver: Infiltrate, mononuclear cell, focal, Grade 2, no. of animals: 0
  Lung including bronchi: Alveolar macrophage aggregation, focal, Grade 1, no. of animals: 0
  Lung including bronchi: Infiltrate, mononuclear cell, alveolar, focal, Grade 1, no. of animals: 0
  Pituitary gland: Cyst, pars nervosa, Presence, no. of animals: 0
  Prostate: Infiltrate, inflammatory cell, interstitium, Grade 1, no. of animals: 0
  Salivary gland (parotid): Focus, hypertrophic, basophilic, focal, Grade 1, no. of animals: 0
  Spleen: Pigmentation, Grade 1, no. of animals: 0
  Submandibular lymph node: Increased, plasma cell, Grade 2, no. of animals: 0
  Thyroid gland: Ectopic thymus, Presence, no. of animals: 0
  Thyroid gland: Ultimobranchial cyst, Presence, no. of animals: 0
[4]
  Adrenal gland: Vacuolation, cortical, diffuse, Grade 1, no. of animals: 0
  Adrenal gland: Vacuolation, cortical, diffuse, Grade 2, no. of animals: 0
  Epididymis: Infiltrate, inflammatory cell, interstitum, Grade 1, no. of animals: 0
  Eye: Dysplasia, retina, focal, Grade 1, no. of animals: 1
  Harderian gland: Infiltrate, inflammatory cell, focal, Grade 1, no. of animals: 0
  Kidney: Basophilia, tubule, cortex, Grade 1, no. of animals: 1
  Kidney: Cast, hyaline, cortex, Grade 1, no. of animals: 0
  Kidney: Hydronephrosis, unilateral, Grade 3, no. of animals: 1
  Kidney: Infiltrate, inflammatory cell, interstitium, Grade 1, no. of animals: 4
  Kidney: Infiltrate, inflammatory cell, interstitium, Grade 2, no. of animals: 0
  Kidney: Mineralization, cortex, Grade 1, no. of animals: 0
  Kidney: Mineralization, corticomedullary junction, Grade 1, no. of animals: 1
  Kidney: Mineralization, medulla, Grade 1, no. of animals: 0
  Liver: Extramedullary hematopoiesis, Grade 1, no. of animals: 0
  Liver: Fatty change, sporadic/periportal, Grade 1, no. of animals: 5
  Liver: Fatty change, sporadic/periportal, Grade 2, no. of animals: 1
  Liver: Infiltrate, mononuclear cell, focal, Grade 1, no. of animals: 2
  Liver: Infiltrate, mononuclear cell, focal, Grade 2, no. of animals: 2
  Lung including bronchi: Alveolar macrophage aggregation, focal, Grade 1, no. of animals: 0
  Lung including bronchi: Infiltrate, mononuclear cell, alveolar, focal, Grade 1, no. of animals: 0
  Pituitary gland: Cyst, pars nervosa, Presence, no. of animals: 0
  Prostate: Infiltrate, inflammatory cell, interstitium, Grade 1, no. of animals: 0
  Salivary gland (parotid): Focus, hypertrophic, basophilic, focal, Grade 1, no. of animals: 1
  Spleen: Pigmentation, Grade 1, no. of animals: 4
  Submandibular lymph node: Increased, plasma cell, Grade 2, no. of animals: 0
  Thyroid gland: Ectopic thymus, Presence, no. of animals: 2
  Thyroid gland: Ultimobranchial cyst, Presence, no. of animals: 4
[5]
  Adrenal gland: Vacuolation, cortical, diffuse, Grade 1, no. of animals: 0
  Adrenal gland: Vacuolation, cortical, diffuse, Grade 2, no. of animals: 0
  Epididymis: Infiltrate, inflammatory cell, interstitum, Grade 1, no. of animals: 0
  Eye: Dysplasia, retina, focal, Grade 1, no. of animals: 0
  Harderian gland: Infiltrate, inflammatory cell, focal, Grade 1, no. of animals: 0
  Kidney: Basophilia, tubule, cortex, Grade 1, no. of animals: 0
  Kidney: Cast, hyaline, cortex, Grade 1, no. of animals: 0
  Kidney: Hydronephrosis, unilateral, Grade 3, no. of animals: 0
  Kidney: Infiltrate, inflammatory cell, interstitium, Grade 1, no. of animals: 3
  Kidney: Infiltrate, inflammatory cell, interstitium, Grade 2, no. of animals: 0
  Kidney: Mineralization, cortex, Grade 1, no. of animals: 0
  Kidney: Mineralization, corticomedullary junction, Grade 1, no. of animals: 0
